Results from the NIST ThermoML archive (doi:10.1016/j.jct.2013.01.032).

Assay: mn = molality of the nth substance listed, in mol/kg
Conditions: 101 kPa, Liquid; for speed of sound: Sing-around technique in a fixed-path interferometer; for mass density: Vibrating tube method

CCCCn1cc[n+](C)c1.O=S(=O)([O-])C(F)(F)F [1-butyl-3-methylimidazolium trifluoromethanesulfonate] + CC(C)O
Conditions | mass density, 308.15 K [kg/m3] | mass density, 323.15 K [kg/m3] | speed of sound, 308.15 K [m/s] | speed of sound, 323.15 K [m/s]
m1 = 0.049 | 777.07 | 763.51 | – | 1053.4
m1 = 0.1 | 781.8 | 768.29 | – | 1055.5
m1 = 0.152 | 786.48 | 772.99 | – | 1057.4
m1 = 0.207 | 791.39 | 777.93 | – | 1059.3
m1 = 0.254 | 795.41 | 781.98 | – | 1060.8
m1 = 0.51 | 816.33 | 803.01 | – | 1068.8
m1 = 0.754 | 834.61 | 821.37 | 1124.8 | 1075.6
m1 = 1.006 | 852.1 | 838.92 | 1130.5 | 1082.3
m1 = 1.525 | 884.17 | 871.1 | 1142 | 1095.6
m1 = 1.758 | 897.53 | 884.5 | 1147 | 1101.3
m1 = 2.05 | 912.77 | 899.8 | 1153.1 | 1108.2
m1 = 2.526 | 935.19 | 922.28 | 1162.5 | 1118.6
m1 = 3.011 | 955.42 | 942.57 | 1171.5 | 1128.5
